Assay results reported in patent US10883996B2, “Methods of identifying signaling modulators of the trimeric TNFa” (UCB BIOPHARMA SRL, priority 2015, dated 2021).
Entries after “also recorded” stand apart in the source; their conditions may differ.

Molecular target: T1, TNFα trimer / TNFR1 (Homo sapiens, UniProt P01375)
T1 construct: human TNFα residues V77-L233 followed by two additional repeats; human TNFα residues D86-L233 linked together by Ser-Gly-Ser
Experiment: Analytical size exclusion chromatography of TNFα/TNFR1/compound complexes, protocol 2
Assay type: binding
Conditions: compound 200 μM (1:10 trimers:compound); 3.5 fold excess of receptors
Method: Size exclusion chromatography was used to determine the number of TNFR1 receptors bound to TNFα in the absence or presence of different compounds. Compound (2) was tested under the conditions described in protocol 1 below. Compound (5) was tested as described in protocol 2.
Compound (5) was added to 20 μM of TNFα trimer at a final concentration of 200 μM (ratio of 1:10 trimers:compound) with DMSO concentration held constant at 2.0%. The sample of TNFα and compound were incubated overnight at a temperature of 4° C. Receptors at a final concentration of 35 μM were added to 10 μM trimer-compound complex (3.5 fold excess of receptors over the trimer-compound complex). The final concentration of DMSO was 1.0%. The mixture was incubated for 1 hour at 22° C.
The conditions for analytical size exclusion using HPLC were as follows: injection volume: 50 μl; Superdex 200HR 10/300, L×I.D. 30 cm×10 mm column, 13-15 μm particle size; and a buffer of 10 mM HEPES, pH 7.5, 150 mM NaCl.
The TNFα was a single polypeptide chain of trimeric human TNFα composed of human TNFα residues V77-L233 followed by two additional repeats of human TNFα residues D86-L233 linked together by Ser-Gly-Ser (sequences are based on UniProt […]). Human TNFR1 was (V43-N184)(N54D, C182S) based on sequence UniProt P19438. […]

T1 sequence (P01375 with tags, fused parts or gaps): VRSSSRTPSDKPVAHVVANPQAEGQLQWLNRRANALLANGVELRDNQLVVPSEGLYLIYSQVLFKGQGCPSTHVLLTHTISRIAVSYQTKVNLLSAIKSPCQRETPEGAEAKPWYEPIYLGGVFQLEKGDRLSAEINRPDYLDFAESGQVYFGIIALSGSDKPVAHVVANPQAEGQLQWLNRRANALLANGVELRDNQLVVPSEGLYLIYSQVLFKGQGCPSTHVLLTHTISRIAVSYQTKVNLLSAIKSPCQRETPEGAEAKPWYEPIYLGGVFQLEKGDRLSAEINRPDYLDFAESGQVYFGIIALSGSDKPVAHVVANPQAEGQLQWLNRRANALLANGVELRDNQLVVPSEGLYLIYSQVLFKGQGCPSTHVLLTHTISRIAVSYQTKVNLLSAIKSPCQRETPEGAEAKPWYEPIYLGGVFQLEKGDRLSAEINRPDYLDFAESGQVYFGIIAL

## Cc1nc2cc(F)c(-c3cnc(N4CC(O)(C(F)(F)F)C4)nc3)cn2c1[C@@H](O)c1ccccc1OC(F)F (single isomer, unassigned) [compound (5)]
  number of receptors binding per trimer (SEC peak position vs mutant TNFα controls): a mixture of two receptors and one receptor; also recorded: moved closer to 1 receptor bound
